Measurements taken from US7935672B2, “Derivatives of genkwanin and sakuranetin, cosmetic and therapeutic use thereof and preparation method of same” (priority 2004, dated 2011).

Key:
[1] = test system: lymphoblasts; details: serious immune disorders; FR 2 510 580 A, FR 2 597 751 A, Lin et al. 2001; cited from earlier work
[2] = test system: IL-2; assay: IL-2 content of cell supernatants after PHA or SEB stimulation (Tests H); details: following stimulation with PHA or SEB; FIGS. 2 and 3
[3] = test system: human blood cells; assay: human blood cells, proliferation and expression of membrane markers (Tests H); format: cell-based; details: for proliferation of the blood cells of the immune response: 24 or 48 hours at 37° C.
[4] = side effects on topical, oral or injected administration (method not described); details: administered topically, orally or by injection
[5] = test system: leukoblasts; assay: antiblastic effect, activity against cancers and leukemias (method not described)

Row | Compound | effect on lymphoblasts formed in hyperplasia [1] | IL-2 production [2] | antibody production for the B lymphocytes [3] | class II MHCs for dendritic cells [3] | proliferation of the blood cells of the immune response [3] | harmful side effects [4] | activity against certain acute cancers and leukemias (antiblastic effect) and chronic myeloid leukemia [5]
1 | COc1cc(O[C@@H]2O[C@H](CO[C@@H]3OC[C@@H](O)[C@H](O)[C@H]3O)[C@@H](O)[C@H](O)[C@H]2O)c2c(=O)cc(-c3ccc(O)cc3)oc2c1 [5-O-β-D-primeverosyl-genkwanin] | destroys the lymphoblasts formed | – | – | – | – | – | –
2 | COc1cc(OC2OC(COC3OCC(O)C(O)C3O)C(O)C(O)C2O)c2c(=O)cc(-c3ccc(O)cc3)oc2c1 [Ex. 2, 5-O-β-D-primeverosyl-genkwanin] | – | inhibition | decrease | decrease | do not induce proliferation | – | –
3 | CCOc1ccc(C2CC(=O)c3c(cc(OC)cc3OC3OC(COC4OC(CO)C(O)C(O)C4O)C(O)C(O)C3O)O2)cc1 [Ex. 5, 2,3-dihydro-5-[O-6-(D-gluocpyranosyl)-β-D-glucopyranosyl]oxy-2-(4-ethoxyphenyl)-7-methoxy-4H-1-benzopyran-4-one] | – | inhibition | decrease | decrease | do not induce proliferation | – | –
4 | CCOc1ccc(-c2cc(=O)c3c(OC4OC(COC5OC(CO)C(O)C(O)C5O)C(O)C(O)C4O)cc(OC)cc3o2)cc1 [Ex. 8, 5-[O-6-(D-glucopyranosyl)-β-D-glucopyranosyl]oxy-2-(4-ethoxyphenyl)-7-methoxy-4H-1-benzopyran-4-one] | – | – | – | – | – | virtual absence | particularly active
